Results published in patent US20200390767A1, “Formulations of 4-(7-Hydroxy-2-isopropyl-4-oxo-4H-quinazolin-3-yl)-benzonitrile” (NOVARTIS AG, priority 2019, published 2020).
Where two headings read alike, the source gives them in different places.

Key:
[1] = test system: postoperative ocular pain in patients undergoing photorefractive keratectomy (PRK) surgery; assay: PRK clinical study, VAS pain severity; type: in vivo, human
Experimental: The study was a proof of concept, double-masked, randomized, vehicle-controlled study of compound I administered as eye drops in addition to standard of care treatment in patients after PRK surgery. PRK surgery was performed as an outpatient procedure under topical anesthesia with removal of the corneal epithelium to expose the stroma for the laser ablation. Compound I dosing was as single eye drop of 2.5% (0.925 mg/drop), administered four times daily (every six hours) in one eye from immediate post-op (time 0) to last dose at 72 hours.
The study consisted of 2 treatment periods using a crossover design. Patients underwent PRK surgery on 2 separate occasions (periods), one eye at a time. Patients were randomized to receive either compound 1 or vehicle following procedure 1 and the alternate following procedure 2.
Patient subjective experience of pain was recorded using VAS, a numeric assessment of pain between 0 and 100, with 0 representing no pain, and 100 representing worst imaginable pain. […] Since it was important clinically to both decrease the maximum pain as well as the overall pain that the patient experiences during the immediate postoperative period, the two periods of 6 hours and up to 12 hours postoperatively, were evaluated as primary endpoints. All evaluable VAS data was collected using an ePRO, which was an electronic device (cell phone with software application), on which patients marked their pain levels at the appropriate time points.
Rescue oral analgesics: It is not ethical to refuse pain control medication to patients postoperatively as part of a clinical trial. […] Because the use of oral rescue medication may be a potential confounder of the pain VAS evaluation, three approaches were used when analyzing pain VAS scores to account for the influence of pain meds (assuming 4 hours of rescue medication effect): (1) any recorded VAS score within 4 hours after use of rescue medication was considered missing; (2) all the recorded VAS scores was used; and (3) any recorded VAS scores within 4 hours after rescue medication use was imputed by the record taken prior to the rescue medication.
The mean VAS pain severity scores at 6 hours and 0-12 hours post-operatively are presented in Table 22 and Table 23, respectively, and shown in FIG. 3. The primary analysis was performed using the Primary PD analysis set.

[2] = PRK clinical study, plasma pharmacokinetics of compound I (LC-MS/MS); type: in vivo, human
Experimental: Pharmacokinetic (PK) samples were collected at the time points defined in the visit schedule supra, with PK blood collection windows shown in Table 27.
All blood samples (3 mL) were taken from the arm by either direct venipuncture or an indwelling catheter inserted in a forearm vein. After each tube of blood was drawn, it was immediately inverted gently 8-10 times to ensure the mixing of tube contents with anticoagulant (3 mL K2 EDTA). Prolonged sample contact with the rubber stopper was avoided and the tubes were placed upright in a test tube rack surrounded by wet ice until centrifugation.
Within 30 minutes, the sample was centrifuged at about 5° C. for 10 minutes at approximately 2000 G (or the sample was placed on ice and centrifuged at room temperature). Immediately after centrifugation, the whole supernatant (approx. 1.5 mL) was transferred in the first 1.8 mL NUNC 2D barcoded cryovial. After mixing the plasma thoroughly, half of the plasma was transferred from the first cryovial to the second cryovial and the caps were secured. Appropriate PK cryolabels were attached to each cryovial and the labels were secured with clear tape. The cryovials were frozen immediately over dry ice then, kept frozen at ≤−20° C. until shipment to the central lab. The vials were shipped in biweekly batches.
Compound I was quantified in plasma using a validated LC-MS/MS method; the lower limit of quantification (LLOQ) was 0.05 ng/mL. Concentrations were expressed in ng per mL units. When feasible, bandage contact lenses (BCL) exposed to study drug were collected and analyzed for residual drug exposure after treatment (LLOQ: 5.00 ng/mL in 0.55 mL of extraction fluid, or 2.75 ng/BCL). Concentrations below the LLOQ were reported as “zero” and missing data were labeled as such.
The following PK parameters were determined as relevant using the actual recorded sampling times and non-compartmental method with Phoenix™ WinNonlin® (Version 6.4): Cmax, Tmax, AUClast (calculated), Clast and Tlast from the plasma concentration-time data. Pre-dose concentrations were determined by inspection at nominal 0, 24 and 72 hours. The linear trapezoidal rule was used for AUClast calculation. No PK parameters were calculated from the bandage contact lenses compound I concentration data.

temperature sensitivity = assay: First in human study, hand immersion test at 49° C.; type: in vivo; details: water at 49° C., MAD part
Experimental: Safety assessments: Safety assessments consisted of collecting all adverse events (AEs), serious adverse events (SAEs), including systemic and ocular adverse events, along with their severity and relationship to study drug. Systemic safety assessments included regular monitoring of hematology, blood chemistry and urinalysis performed at study center and regular assessments of physical examination, vital signs (systolic and diastolic blood pressure, pulse rate, and body temperature), ECG, pregnancy and assessments of fertility and hand immersion test at 49° C. during MAD part. Ocular safety assessments included early treatment diabetic retinopathy study (ETDRS) visual acuity, intraocular pressure, slit-lamp biomicroscopy, corneal staining and dilated fundus exam.
For the hand immersion test, all subjects in the treatment cohorts withdrew their hand from water at 49° C. at a time interval between 0 to ≤50 secs.

[3] = Day 1, plasma, topical ocular 2.5% compound I
[4] = Day 4, plasma, topical ocular 2.5% compound I
[5] = human, plasma, topical, 2.5 %, 4 days

CC(C)c1nc2cc(O)ccc2c(=O)n1-c1ccc(C#N)cc1 [Compound I, 4-(7-hydroxy-2-isopropyl-4-oxo-4H-quinazolin-3-yl)-benzonitrile]
VAS pain severity score, % Diff ([1]; 0-12 hours post-operatively): −22%
VAS pain severity score, Diff (compound I-Vehicle) ([1]; 0-12 hours post-operatively): −8.56
VAS pain severity score, model estimated mean ([1]; 0-12 hours post-operatively, 2.5% four times daily, Primary PD analysis set): 30.90
VAS pain severity versus Vehicle during the first 18 hours after surgery ([1]; 6 out of the 7 time points, p-value threshold 0.10): statistically significantly lower VAS pain severity scores
VAS pain severity score, % Diff ([1]; 6 hours post-operatively): −25%
VAS pain severity score, Diff (compound I-Vehicle) ([1]; 6 hours post-operatively): −11.1
VAS pain severity score, model estimated mean (SE) ([1]; 6 hours post-operatively, 2.5% four times daily, Primary PD analysis set): 34.63 (4.05)
mean change in VAS score after instillation of eye drop ([1]; 6.5 hours versus 6 hours post-operative): −3.1
mean change in VAS score after instillation of eye drop ([1]; 18.5 hours versus 18 hours post-operative): 2.8
mean change in VAS score after instillation of eye drop ([1]; 24.5 hours versus 24 hours post-operative): 1.3
Median Tlast [2, 3]: 2.00 h
Tlast (range) [2, 3]: 1.95 to 2.05 h
Median Tlast [2, 4]: 2.00 h
Tlast (range) [2, 4]: 1.77 to 2.10 h
Day 1 pre-dose plasma concentrations ([2]; LLOQ 0.05 ng/mL): below the limit of quantitation
Tmax ([2]; human, plasma, topical or ocular, 2.5 %, after either single (first dose) or repeated 4 times daily topical ocular administration, read-out: median plasma Tmax): ~30 min
Tmax ([2]; human, plasma, topical or ocular, 2.5 %, after the first dose (Day 1), unilateral topical ocular 2.5%, read-out: median Tmax, plasma): 27.5 min
AUC(0-t) ([2]; human, plasma, topical or ocular, 2.5 %, max, profile day 1, plasma, topical ocular 2.5% compound I, read-out: AUClast): 1.58 ng·h/mL
Cmax ([2]; human, plasma, topical or ocular, 2.5 %, max, profile day 1, plasma, topical ocular 2.5% compound I, read-out: Cmax): 1.05 ng/mL
Tmax ([2]; human, plasma, topical or ocular, 2.5 %, max, profile day 1, plasma, topical ocular 2.5% compound I, read-out: Tmax): 120 min
AUC(0-t) ([2]; human, plasma, topical or ocular, 2.5 %, max, profile day 4, plasma, topical ocular 2.5% compound I, read-out: AUClast): 14.5 ng·h/mL
Cmax ([2]; human, plasma, topical or ocular, 2.5 %, max, profile day 4, plasma, topical ocular 2.5% compound I, read-out: Cmax): 7.56 ng/mL
Tmax ([2]; human, plasma, topical or ocular, 2.5 %, max, profile day 4, plasma, topical ocular 2.5% compound I, read-out: Tmax): 125 min
Cmax ([2]; human, plasma, topical or ocular, 2.5 %, mean, profile day 1 (first dose), plasma, topical ocular 2.5% compound I, PK analysis set, read-out: Cmax): 0.454 ng/mL
AUC(0-t) ([2]; human, plasma, topical or ocular, 2.5 %, mean, profile day 1, plasma, topical ocular 2.5% compound I, read-out: AUClast): 0.638 ng·h/mL
Cmax ([2]; human, plasma, topical or ocular, 2.5 %, mean, profile day 4 (13th dose, QID), plasma, topical ocular 2.5% compound I, read-out: Cmax): 2.4 ng/mL
AUC(0-t) ([2]; human, plasma, topical or ocular, 2.5 %, mean, profile day 4, plasma, topical ocular 2.5% compound I, read-out: AUClast): 4.38 ng·h/mL
AUC(0-t) ([2]; human, plasma, topical or ocular, 2.5 %, median, profile day 1, plasma, topical ocular 2.5% compound I, read-out: AUClast): 0.569 ng·h/mL
Cmax ([2]; human, plasma, topical or ocular, 2.5 %, median, profile day 1, plasma, topical ocular 2.5% compound I, read-out: Cmax): 0.375 ng/mL
Tmax ([2]; human, plasma, topical or ocular, 2.5 %, median, profile day 1, plasma, topical ocular 2.5% compound I, read-out: Tmax): 27.5 min
AUC(0-t) ([2]; human, plasma, topical or ocular, 2.5 %, median, profile day 4, plasma, topical ocular 2.5% compound I, read-out: AUClast): 3.42 ng·h/mL
Cmax ([2]; human, plasma, topical or ocular, 2.5 %, median, profile day 4, plasma, topical ocular 2.5% compound I, read-out: Cmax): 2.07 ng/mL
Tmax ([2]; human, plasma, topical or ocular, 2.5 %, median, profile day 4, plasma, topical ocular 2.5% compound I, read-out: Tmax): 28 min
AUC(0-t) ([2]; human, plasma, topical or ocular, 2.5 %, min, profile day 1, plasma, topical ocular 2.5% compound I, read-out: AUClast): 0.261 ng·h/mL
Cmax ([2]; human, plasma, topical or ocular, 2.5 %, min, profile day 1, plasma, topical ocular 2.5% compound I, read-out: Cmax): 0.195 ng/mL
Tmax ([2]; human, plasma, topical or ocular, 2.5 %, min, profile day 1, plasma, topical ocular 2.5% compound I, read-out: Tmax): 10 min
AUC(0-t) ([2]; human, plasma, topical or ocular, 2.5 %, min, profile day 4, plasma, topical ocular 2.5% compound I, read-out: AUClast): 1.18 ng·h/mL
Cmax ([2]; human, plasma, topical or ocular, 2.5 %, min, profile day 4, plasma, topical ocular 2.5% compound I, read-out: Cmax): 0.639 ng/mL
Tmax ([2]; human, plasma, topical or ocular, 2.5 %, min, profile day 4, plasma, topical ocular 2.5% compound I, read-out: Tmax): 0 min
Cmax ([2]; human, plasma, topical, 2.5 %, 13th dose on Day 4, read-out: Arithmetic mean plasma Cmax): 2.4 ng/mL
AUC(0-t) ([2]; human, plasma, topical, 2.5 %, 13th dose on Day 4, read-out: mean plasma AUClast): 4.38 ng·h/mL
mean AUClast Day 4 versus Day 1 [2, 5]: 6.9 fold
mean Cmax Day 4 versus Day 1 [2, 5]: 5.3 fold
Cmax ([2]; human, plasma, topical, 2.5 %, across 4 days of repeated QID dosing, read-out: observed plasma Cmax, range): 0.195 to 7.56 ng/mL
AUC(0-t) ([2]; human, plasma, topical, 2.5 %, across 4 days of repeated QID dosing, read-out: plasma AUClast, range): 0.261 to 14.5 ng·h/mL
Tmax ([2]; human, plasma, topical, 2.5 %, after the 13th dose (Day 4), read-out: median Tmax, plasma): 28 min
Cmax ([2]; human, plasma, topical, 2.5 %, first dose on Day 1, read-out: Arithmetic mean plasma Cmax): 0.454 ng/mL
AUC(0-t) ([2]; human, plasma, topical, 2.5 %, first dose on Day 1, read-out: mean plasma AUClast): 0.638 ng·h/mL
concentration at 24 hr ([2]; human, plasma, topical, 2.5 %, prior to the 5th dose on Day 2 (24 hr post 1st dose), read-out: Trough mean plasma concentration): 1.25 ng/mL
concentration at 72 hr ([2]; human, plasma, topical, 2.5 %, prior to the 13th dose on Day 4 (72 hr post 1st dose), read-out: Trough mean plasma concentration): 1.99 ng/mL
hand immersion time versus vehicle (temperature sensitivity): no meaningful change in immersion time
